Among the data in US6251893A, “Bicyclic piperidine and piperazine compounds having 5-HT6 receptor affinity” (NPS Allelix Corp., priority 1998, dated 2001) are inhibition values, retold here.

Assay [1] deals with 5-HT7 receptor (Homo sapiens, UniProt P34969). The assay is described as follows: Binding to 5-HT7 receptor (selectivity). The following applies: selectivity versus 5-HT6; read-out: percent inhibition for the 5-HT7 receptor. Set-up: dose or concentration left out as unconfirmed.
The target in assay [2] is T1, 5HT2C receptor (Homo sapiens, UniProt P28335).
T1 sequence (P28335 33-458): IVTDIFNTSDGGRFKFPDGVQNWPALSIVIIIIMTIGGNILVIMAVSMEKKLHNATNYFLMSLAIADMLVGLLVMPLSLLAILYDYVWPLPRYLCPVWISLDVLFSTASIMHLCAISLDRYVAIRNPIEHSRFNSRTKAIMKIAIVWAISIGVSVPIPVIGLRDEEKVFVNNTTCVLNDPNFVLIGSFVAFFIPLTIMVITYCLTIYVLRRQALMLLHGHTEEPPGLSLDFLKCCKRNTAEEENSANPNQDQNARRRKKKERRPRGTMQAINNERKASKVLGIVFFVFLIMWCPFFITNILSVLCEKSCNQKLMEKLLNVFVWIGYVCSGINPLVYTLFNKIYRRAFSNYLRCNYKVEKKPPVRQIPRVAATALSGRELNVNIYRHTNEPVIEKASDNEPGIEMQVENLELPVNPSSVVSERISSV
The experiment in a line: Binding to 5HT2C receptor (selectivity). As to conditions: selectivity versus 5-HT6; read-out: percent inhibition for the 5HT2C receptor.

For assay [3], the target named is human 5HT6 receptor (Homo sapiens, UniProt P50406). The experiment in a line: Binding affinity for the 5-HT6 receptor (3H-LSD displacement). Set-up: expressed in transfected cells. The following applies: 100 nM test compound; 3H-LSD (2 nM); 60 minute incubation at 37° C; read-out: percent inhibition of radioligand binding for the 5-HT6 receptor. How it is done: Binding Affinity for the 5-HT6 Receptor
The assay protocol generally entailed the incubation of membranes prepared from cells expressing the 5-HT6 receptor with ^3 H-LSD (2 nM). Increasing levels of the test compound were incubated with the radioligand and the membrane homogenates prepared from the recombinant cells. After a 60 minute incubation at 37° C., the incubation was terminated by vacuum filtration. The filters were washed with buffer and the filters were counted for radioactivity using liquid scintillation spectrometry. […] Concentrations ranging from 10^-11 M to 10^-5 M of the test compound were evaluated. […] Affinity for the 5-HT6 receptor is expressed as the amount (in percent) of binding of the radioligand that is inhibited in the presence of 100 nM of test compound. A greater percent inhibition indicates greater affinity for the 5-HT6 receptor.

Assay [4] deals with 5-HT2A receptor (Homo sapiens, UniProt P28223). The experiment in a line: Binding to 5-HT2A receptor (selectivity). The arrangement: dose or concentration left out as unconfirmed. The following applies: selectivity versus 5-HT6; read-out: percent inhibition for the 5-HT2A receptor.

Bounds are passed on as bounds.

Usually inhibition stands for the change of the read-out against control, counted positive when it falls.

Chain of 5-HT2A receptor (P28223 whole entry): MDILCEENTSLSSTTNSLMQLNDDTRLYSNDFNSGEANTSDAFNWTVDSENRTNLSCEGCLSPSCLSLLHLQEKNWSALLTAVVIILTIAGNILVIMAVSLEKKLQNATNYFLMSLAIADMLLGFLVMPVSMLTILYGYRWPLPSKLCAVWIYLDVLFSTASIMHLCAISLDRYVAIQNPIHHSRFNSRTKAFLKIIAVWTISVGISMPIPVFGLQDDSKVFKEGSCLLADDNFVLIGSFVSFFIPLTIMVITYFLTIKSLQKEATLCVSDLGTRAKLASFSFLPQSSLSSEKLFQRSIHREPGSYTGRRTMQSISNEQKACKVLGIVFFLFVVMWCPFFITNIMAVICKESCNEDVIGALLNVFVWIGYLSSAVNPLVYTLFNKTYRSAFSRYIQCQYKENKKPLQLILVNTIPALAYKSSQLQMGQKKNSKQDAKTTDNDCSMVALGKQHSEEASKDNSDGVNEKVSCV
Chain of human 5HT6 receptor (P50406 whole entry): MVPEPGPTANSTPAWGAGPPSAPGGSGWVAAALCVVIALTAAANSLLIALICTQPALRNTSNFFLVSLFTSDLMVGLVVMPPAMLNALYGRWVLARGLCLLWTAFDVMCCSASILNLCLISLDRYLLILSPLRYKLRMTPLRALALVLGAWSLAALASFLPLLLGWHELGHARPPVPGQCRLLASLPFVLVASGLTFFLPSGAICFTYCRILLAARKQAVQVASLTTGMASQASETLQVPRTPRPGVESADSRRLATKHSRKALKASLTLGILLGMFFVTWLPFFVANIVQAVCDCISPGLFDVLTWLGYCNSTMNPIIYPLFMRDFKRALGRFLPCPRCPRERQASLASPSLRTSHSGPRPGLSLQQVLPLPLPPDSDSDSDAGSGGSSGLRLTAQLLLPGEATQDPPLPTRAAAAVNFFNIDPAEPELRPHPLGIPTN
Chain of 5-HT7 receptor (P34969 whole entry): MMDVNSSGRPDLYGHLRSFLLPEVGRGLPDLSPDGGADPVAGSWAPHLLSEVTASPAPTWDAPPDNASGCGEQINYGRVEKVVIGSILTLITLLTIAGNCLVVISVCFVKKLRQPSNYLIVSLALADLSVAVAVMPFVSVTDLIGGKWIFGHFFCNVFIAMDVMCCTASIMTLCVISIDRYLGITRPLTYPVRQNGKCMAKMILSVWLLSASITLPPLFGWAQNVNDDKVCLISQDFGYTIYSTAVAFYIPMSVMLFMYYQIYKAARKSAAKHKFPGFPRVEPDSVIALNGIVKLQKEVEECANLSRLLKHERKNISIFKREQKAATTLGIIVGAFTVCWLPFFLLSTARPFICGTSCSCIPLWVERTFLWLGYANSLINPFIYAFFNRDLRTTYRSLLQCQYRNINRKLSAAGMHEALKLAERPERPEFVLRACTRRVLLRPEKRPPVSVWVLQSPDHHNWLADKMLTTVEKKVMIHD

For the molecule `O=S(=O)(c1ccc(Cl)cc1)n1cc(C2=CCN3CCCC3C2)c2cc(F)ccc21` (racemic) [Example 6ii, 1-(4-Chlorophenylsulfonyl)-5-fluoro-3-[(8a-R,S)-1,2,3,5,8,8a-hexahydro-7-indolizinyl]indole], the inhibition in assay [1] and in assay [4] was under 20% each time. Further, the inhibition at 0.1 µM is under 20% in assay [2] and over 80% in assay [3].

As for `O=S(=O)(c1ccccc1)n1cc(C2=CCN3CCCC3C2)c2cc(F)cc(F)c21` (racemic) [Example 6jj, 5,7-Difluoro-3-[(8a-R,S)-1,2,3,5,8,8a-hexahydro-7-indolizinyl]-1-phenylsulfonylindole], the inhibition in assay [1] and in assay [4] was under 20% throughout. For the same molecule, the results for the inhibition at 0.1 µM in assay [2] and in assay [3] were under 20% and over 80%, respectively.

On to `O=S(=O)(c1cccc2ccccc12)n1cc(C2=CCN3CCCC3C2)c2cc(F)cc(F)c21` (racemic) [Example 6kk, 5,7-Difluoro-3-[(8a-R,S)-1,2,3,5,8,8a-hexahydro-7-indolizinyl]-1-naphthalenesulfonylindole], for which the inhibition in assay [1] and in assay [4] was under 20% throughout. The results for the inhibition at 0.1 µM in assay [2] and in assay [3] were under 20% and over 80%, respectively.

Consider `O=S(=O)(c1ccc2ccccc2c1)n1cc(N2CCN3CCCCC3C2)c2ccccc21` (racemic) [Example 6l, 3-[(6-R,S)-1,4-Diaza[4.4. 0]bicyclodecan-4-yl]-1-(2-naphthalenesulfonyl)indole], for which the inhibition in assay [1] and in assay [4] was under 20% throughout. In addition, the results for the inhibition at 0.1 µM in assay [2] and in assay [3] were under 20% and over 80%, respectively.

For the molecule `O=S(=O)(c1ccc2ccccc2c1)n1cc(C2=CCN3CCCC3C2)c2cc(F)cc(F)c21` (racemic) [Example 6ll, 5,7-Difluoro-3-[(8a-R,S)-1,2,3,5,8,8a-hexahydro-7-indolizinyl]-2-naphthalenesulfonylindole], the inhibition in assay [1] and in assay [4] was under 20% each time. Besides, the inhibition at 0.1 µM in assay [2] was under 20%; in assay [3], over 80%.

With `O=S(=O)(c1cccc2ccccc12)n1cc(N2CCN3CCCCC3C2)c2ccccc21` (racemic) [Example 6m, 3-[(6-R,S)-1,4-Diaza[4.4. 0]bicyclodecan-4-yl]-1-(1-naphthalenesulfonyl)indole], the inhibition in assay [1] and in assay [4] was under 20% each time. The inhibition at 0.1 µM in assay [2] was under 20%; in assay [3] it was over 80%.

For the molecule `COc1ccc2c(c1)c(C1=CCN3CCCC3C1)cn2S(=O)(=O)c1ccccc1` (racemic) [Example 6mm, 5-Methoxy-3-[(8a-R,S)-1,2,3,5,8,8a-hexahydro-7-indolizinyl]-1-phenylsulfonylindole], the inhibition in assay [1] and in assay [4] was under 20% each time. Moreover, the inhibition at 0.1 µM in assay [2] is under 20%; in assay [3], over 80%.

Regarding `O=S(=O)(c1ccc(Br)cc1)n1cc(N2CCN3CCCCC3C2)c2ccccc21` (racemic) [Example 6n, 1-(4-Bromophenylsulfonyl)-3-[(6-R,S)-1,4-diaza[4.4. 0]bicyclodecan-4-yl]indole], the inhibition in assay [1] and in assay [4] was under 20% in each case. In addition, the figures for the inhibition at 0.1 µM in assay [2] and in assay [3] were under 20% and over 80%, respectively.

As to `COc1ccc2c(c1)c(C1=CCN3CCCC3C1)cn2S(=O)(=O)c1cccc2ccccc12` (racemic) [Example 6nn, 5-Methoxy-3-[(8a-R,S)-1,2,3,5,8,8a-hexahydro-7-indolizinyl]-1-naphthalenesulfonylindole], the inhibition in assay [1] and in assay [4] was under 20% throughout. The inhibition at 0.1 µM in assay [2] is under 20%; in assay [3], over 80%.

Regarding `COc1ccc2c(c1)c(C1=CCN3CCCC3C1)cn2S(=O)(=O)c1ccc2ccccc2c1` (racemic) [Example 6oo, 5-Methoxy-3-[(8a-R,S)-1,2,3,5,8,8a-hexahydro-7-indolizinyl]-2-naphthalenesulfonylindole], the inhibition in assay [1] and in assay [4] was under 20% each time. In addition, the inhibition at 0.1 µM in assay [2] was under 20%; in assay [3] it was over 80%.

With `O=S(=O)(c1ccc(Cl)cc1)n1cc(N2CCN3CCCCC3C2)c2ccccc21` (racemic) [Example 6p, 1-(4-Chlorophenylsulfonyl)-3-[(6-R,S)-1,4-diaza[4.4. 0]bicyclodecan-4-yl]indole], the inhibition in assay [1] and in assay [4] was under 20% in each case. Also, the figures for the inhibition at 0.1 µM in assay [2] and in assay [3] were under 20% and over 80%, respectively.

With `Cc1ccc2c(c1)c(C1=CCN3CCCC3C1)cn2S(=O)(=O)c1ccccc1` (racemic) [Example 6pp, 5-Methyl-3-[(8a-R,S)-1,2,3,5,8,8a-hexahydro-7-indolizinyl]-1-phenylsulfonylindole], the inhibition in assay [1] and in assay [4] was under 20% throughout. The inhibition at 0.1 µM in assay [2] is under 20%; in assay [3], over 80%.

Take `Cc1ccc2c(c1)c(C1=CCN3CCCC3C1)cn2S(=O)(=O)c1cccc2ccccc12` (racemic) [Example 6qq, 5-Methyl-3-[(8a-R,S)-1,2,3,5,8,8a-hexahydro-7-indolizinyl]-1-naphthalenesulfonylindole]: the inhibition in assay [1] and in assay [4] was under 20% in each case. The inhibition at 0.1 µM was under 20% in assay [2] and over 80% in assay [3].

`Cc1ccc2c(c1)c(C1=CCN3CCCC3C1)cn2S(=O)(=O)c1ccc2ccccc2c1` (racemic) [Example 6rr, 5-Methyl-3-[(8a-R,S)-1,2,3,5,8,8a-hexahydro-7-indolizinyl]-2-naphthalenesulfonylindole]: the inhibition in assay [1] and in assay [4] was under 20% throughout. In addition, the inhibition at 0.1 µM is under 20% in assay [2] and over 80% in assay [3].

On to `Cc1cccc2c(C3=CCN4CCCC4C3)cn(S(=O)(=O)c3ccccc3)c12` (racemic) [Example 6ss, 7-Methyl-3-[(8a-R,S)-1,2,3,5,8,8a-hexahydro-7-indolizinyl]-1-phenylsulfonylindole], for which the inhibition in assay [1] and in assay [4] was under 20% each time. The inhibition at 0.1 µM in assay [2] is under 20%; in assay [3], over 80%.

For the molecule `Cc1cccc2c(C3=CCN4CCCC4C3)cn(S(=O)(=O)c3cccc4ccccc34)c12` (racemic) [Example 6tt, 7-Methyl-3-[(8a-R,S)-1,2,3,5,8,8a-hexahydro-7-indolizinyl]-1-naphthalenesulfonylindole], the inhibition in assay [1] and in assay [4] was under 20% each time. The inhibition at 0.1 µM in assay [2] was under 20%; in assay [3], over 80%.

As to `O=S(=O)(c1ccccc1)n1cc(N2CCN3CCCCC3C2)c2ccccc21` (racemic) [Example 6u, 3-[(6-R,S)-1,4-Diaza[4.4.0]bicyclodecan-4-yl]-1-(phenylsulfonyl)indole], the inhibition in assay [1] and in assay [4] was under 20% throughout. Besides, the inhibition at 0.1 µM in assay [2] was under 20%; in assay [3] it was over 80%.

For the molecule `O=S(=O)(c1ccc2ccccc2c1)n1cc(C2=CCN3CCCC3C2)c2cc(F)ccc21` (racemic) [Example 6z, 5-Fluoro-3-[(8a-R,S)-1,2,3,5,8,8a-hexahydro-7-indolizinyl]-1-(2-naphthalenesulfonyl)indole], the inhibition in assay [1] and in assay [4] was under 20% throughout. Besides, the inhibition at 0.1 µM in assay [2] was under 20%; in assay [3], over 80%.
